Earlier results in patent US20230051463A1, “Methotrexate Dosage Form” (ROS Therapeutics ApS, priority 2020, published 2023).
Like-named read-outs stand apart in the source and are kept apart here.

Columns and labels:
[1] = oral

Compound | solubility in water | AUC(0-24) Geometric LS Mean ([1]; Methotrexate 10 mg) [ng·h/mL] | Cmax Geometric LS Mean ([1]; Methotrexate 10 mg) [ng/mL] | AUC(0-24) Geometric LS Mean ([1]; Methotrexate 15 mg) [ng·h/mL] | Cmax Geometric LS Mean ([1]; Methotrexate 15 mg) [ng/mL] | AUC(0-24) Geometric LS Mean ([1]; Methotrexate 20 mg) [ng·h/mL] | Cmax Geometric LS Mean ([1]; Methotrexate 20 mg) [ng/mL] | AUC(0-24) Geometric LS Mean ([1]; Methotrexate 25 mg) [ng·h/mL] | Cmax Geometric LS Mean ([1]; Methotrexate 25 mg) [ng/mL]
CN(Cc1cnc2nc(N)nc(N)c2n1)c1ccc(C(=O)N[C@@H](CCC(=O)O)C(=O)O)cc1 [Methotrexate] | practically insoluble |  |  |  |  |  |  |  | 
CN(Cc1cnc2nc(N)nc(N)c2n1)c1ccc(C(=O)N[C@@H](CCC(=O)O)C(=O)O)cc1 [Oral MTX] |  | 1223.7 | 247.2 | 1752.0 | 349.4 | 1927.2 | 440.4 | 1987.8 | 423.5
CN(Cc1cnc2nc(N)nc(N)c2n1)c1ccc(C(=O)N[C@@H](CCC(=O)[O-])C(=O)[O-])cc1.[Na+].[Na+] [Methotrexate disodium] | freely soluble |  |  |  |  |  |  |  | 
